Experimental data taken from a polymer gas permeability compilation.

Structure (SMILES): */C(C)=C(/*)[Si](C)(C)CC (repeat unit)
- CH4 permeability: 1200 Barrer
- CO2 permeability: 4600 Barrer
- H2 permeability: 1930 Barrer
- N2 permeability: 490 Barrer
- O2 permeability: 970 Barrer

Structure (SMILES): *Oc1ccc(-c2ccc(Oc3ccc(S(=O)(=O)c4ccc(*)cc4)cc3)cc2)cc1 (repeat unit)
- CH4 permeability: 0.25 Barrer
- CO2 permeability: 5.6 Barrer
- H2 permeability: 28 Barrer
- N2 permeability: 0.24 Barrer
- O2 permeability: 1.3 Barrer

Structure (SMILES): *Oc1ccc(C(=O)c2ccc(-c3ccc(C(=O)c4ccc(Oc5ccc(S(=O)(=O)c6ccc(*)cc6)cc5)cc4)cc3)cc2)cc1 (repeat unit)
- CH4 permeability: 0.12 Barrer
- CO2 permeability: 3.27 Barrer
- H2 permeability: 8.38 Barrer
- N2 permeability: 0.11 Barrer
- O2 permeability: 0.64 Barrer

Structure (SMILES): *Oc1ccc(C(=O)c2ccc(Oc3c(C)cc(-c4cc(C)c(*)c(C)c4)cc3C)cc2)cc1 (repeat unit)
- CH4 permeability: 1.02 Barrer
- CO2 permeability: 19.4 Barrer
- N2 permeability: 0.971 Barrer
- O2 permeability: 4.76 Barrer

Structure (SMILES): *Oc1ccc(C(=O)c2ccc(Oc3ccc(C(c4ccc(*)cc4)(C(F)(F)F)C(F)(F)F)cc3)cc2)c2ccccc12 (repeat unit)
- CH4 permeability: 0.21 Barrer
- CO2 permeability: 6.04 Barrer
- N2 permeability: 0.325 Barrer
- O2 permeability: 1.85 Barrer

Structure (SMILES): *Oc1ccc(C(=O)c2ccccc2-c2ccccc2C(=O)c2ccc(Oc3ccc(C(c4ccc(*)cc4)(C(F)(F)F)C(F)(F)F)cc3)cc2)cc1 (repeat unit)
- CH4 permeability: 0.087 Barrer
- CO2 permeability: 3.12 Barrer
- N2 permeability: 0.146 Barrer
- O2 permeability: 0.99 Barrer

Structure (SMILES): *Oc1ccc(C(C)(C)c2ccc(OC(=O)c3cc(C(*)=O)cc(C(C)(C)C)c3)c(C(C)C)c2)cc1C(C)C (repeat unit)
- CH4 permeability: 1.43 Barrer
- CO2 permeability: 16.1 Barrer
- H2 permeability: 41.4 Barrer
- N2 permeability: 1.08 Barrer
- O2 permeability: 5.03 Barrer

Structure (SMILES): *Oc1ccc(C(C)(C)c2ccc(OC(=O)c3cc(C(*)=O)cc(C(C)(C)C)c3)c(C)c2)cc1C (repeat unit)
- CH4 permeability: 0.4 Barrer
- CO2 permeability: 8 Barrer
- H2 permeability: 27.1 Barrer
- N2 permeability: 0.393 Barrer
- O2 permeability: 2.37 Barrer

Structure (SMILES): *Oc1ccc(C(C)(C)c2ccc(OC(=O)c3cccc(C(*)=O)c3)c(C)c2)cc1C (repeat unit)
- CH4 permeability: 0.0459 Barrer
- CO2 permeability: 1.24 Barrer
- H2 permeability: 7.79 Barrer
- N2 permeability: 0.0628 Barrer
- O2 permeability: 0.4 Barrer

Structure (SMILES): *Oc1ccc(C(C)(C)c2ccc(OC(=O)c3cccc(C(*)=O)c3)cc2)cc1 (repeat unit)
- CH4 permeability: 0.269 Barrer
- CO2 permeability: 5.6 Barrer
- N2 permeability: 0.272 Barrer
- O2 permeability: 1.45 Barrer

Structure (SMILES): *Oc1ccc(C(C)(C)c2ccc(OC(=O)c3cccc(C(=O)Oc4cc(-c5cc(*)cc6ccccc56)c5ccccc5c4)c3)cc2)cc1 (repeat unit)
- CH4 permeability: 0.148 Barrer
- CO2 permeability: 4 Barrer
- N2 permeability: 0.139 Barrer
- O2 permeability: 0.93 Barrer

Structure (SMILES): *Oc1ccc(C(C)(C)c2ccc(OCCC(*)O)cc2)cc1 (repeat unit)
- CH4 permeability: 0.02 Barrer
- CO2 permeability: 0.5 Barrer
- N2 permeability: 0.019 Barrer
- O2 permeability: 0.09 Barrer

Structure (SMILES): *Oc1ccc(C(C)(C)c2ccc(Oc3ccc(S(=O)(=O)c4ccc(*)c5ccccc45)cc3)cc2)cc1 (repeat unit)
- CH4 permeability: 0.08 Barrer
- CO2 permeability: 4.7 Barrer
- N2 permeability: 0.15 Barrer
- O2 permeability: 1.2 Barrer

Structure (SMILES): *Oc1ccc(C(C)(C)c2ccc(Oc3ccc(S(=O)(=O)c4ccc(*)cc4)cc3)cc2)cc1 (repeat unit)
- CH4 permeability: 0.25 Barrer
- CO2 permeability: 5.6 Barrer
- H2 permeability: 14 Barrer
- N2 permeability: 0.25 Barrer
- O2 permeability: 1.4 Barrer

Structure (SMILES): *Oc1ccc(C(C)(C)c2cccc(C(C)(C)c3ccc(Oc4ccc(S(=O)(=O)c5ccc(*)cc5)cc4)cc3)c2)cc1 (repeat unit)
- CH4 permeability: 0.111 Barrer
- CO2 permeability: 2.8 Barrer
- H2 permeability: 10.6 Barrer
- N2 permeability: 0.11 Barrer
- O2 permeability: 0.69 Barrer

Structure (SMILES): *Oc1ccc(C(c2ccc(OC(=O)c3cc(C(*)=O)cc(C(C)(C)C)c3)cc2)(C(F)(F)F)C(F)(F)F)cc1 (repeat unit)
- CH4 permeability: 3.47 Barrer
- CO2 permeability: 56.9 Barrer
- H2 permeability: 86.7 Barrer
- N2 permeability: 3.72 Barrer
- O2 permeability: 15.7 Barrer

Structure (SMILES): *Oc1ccc(C(c2ccc(OC(=O)c3cccc(C(*)=O)c3)cc2)(C(F)(F)F)C(F)(F)F)cc1 (repeat unit)
- CH4 permeability: 0.736 Barrer
- CO2 permeability: 16.6 Barrer
- H2 permeability: 37.3 Barrer
- N2 permeability: 0.958 Barrer
- O2 permeability: 4.54 Barrer

Structure (SMILES): *Oc1ccc(C(c2ccc(Oc3c(F)c(F)c(COC(C4CCCC(C(OCc5c(F)c(F)c(*)c(F)c5F)(C(F)(F)F)C(F)(F)F)C4)(C(F)(F)F)C(F)(F)F)c(F)c3F)cc2)(C(F)(F)F)C(F)(F)F)cc1 (repeat unit)
- CH4 permeability: 0.55 Barrer
- CO2 permeability: 12 Barrer
- H2 permeability: 28 Barrer
- N2 permeability: 0.9 Barrer
- O2 permeability: 3.8 Barrer

Structure (SMILES): *Oc1ccc(C(c2ccc(Oc3ccc(C(=O)c4ccc(C(c5ccc(C(=O)c6ccc(*)cc6)cc5)(C(F)(F)F)C(F)(F)F)cc4)cc3)cc2)(C(F)(F)F)C(F)(F)F)cc1 (repeat unit)
- CH4 permeability: 0.477 Barrer
- CO2 permeability: 11.5 Barrer
- H2 permeability: 31.4 Barrer
- N2 permeability: 0.76 Barrer
- O2 permeability: 3.7 Barrer

Structure (SMILES): *Oc1ccc(C2(c3ccc(Oc4ccc(S(=O)(=O)c5ccc(*)cc5)cc4)c(C)c3)OC(=O)c3ccccc32)cc1C (repeat unit)
- CH4 permeability: 0.0727 Barrer
- CO2 permeability: 3.12 Barrer
- H2 permeability: 10.8 Barrer
- N2 permeability: 0.11 Barrer
- O2 permeability: 0.868 Barrer

Structure (SMILES): *Oc1ccc(C23CC4CC(C2)CC(c2ccc(Oc5ccc(S(=O)(=O)c6ccc(*)cc6)cc5)cc2)(C4)C3)cc1 (repeat unit)
- CH4 permeability: 0.396 Barrer
- CO2 permeability: 9.5 Barrer
- H2 permeability: 27.8 Barrer
- N2 permeability: 0.455 Barrer
- O2 permeability: 2.55 Barrer

Structure (SMILES): *Oc1ccc(Cc2ccc(Oc3c(F)c(F)c(COC(C4CCCC(C(OCc5c(F)c(F)c(*)c(F)c5F)(C(F)(F)F)C(F)(F)F)C4)(C(F)(F)F)C(F)(F)F)c(F)c3F)cc2)cc1 (repeat unit)
- CH4 permeability: 0.33 Barrer
- CO2 permeability: 7.6 Barrer
- H2 permeability: 18 Barrer
- N2 permeability: 0.55 Barrer
- O2 permeability: 2.3 Barrer

Structure (SMILES): *Oc1ccc(N2C(=O)CCC23CCC(=O)N3c2ccc(Oc3c(F)c(F)c(COC(C4CCCC(C(OCc5c(F)c(F)c(*)c(F)c5F)(C(F)(F)F)C(F)(F)F)C4)(C(F)(F)F)C(F)(F)F)c(F)c3F)cc2)cc1 (repeat unit)
- CH4 permeability: 0.25 Barrer
- CO2 permeability: 7.1 Barrer
- H2 permeability: 21 Barrer
- N2 permeability: 0.46 Barrer
- O2 permeability: 2.2 Barrer

Structure (SMILES): *Oc1ccc(S(=O)(=O)c2ccc(Oc3c(C)cc(-c4cc(C)c(*)c(C)c4C)c(C)c3C)cc2)cc1 (repeat unit)
- CH4 permeability: 0.944 Barrer
- CO2 permeability: 25.5 Barrer
- N2 permeability: 1.2 Barrer
- O2 permeability: 6 Barrer

Structure (SMILES): *Oc1ccc(S(=O)(=O)c2ccc(Oc3c(C)cc(C(c4cc(C)c(*)c(C)c4)(C(F)(F)F)C(F)(F)F)cc3C)cc2)cc1 (repeat unit)
- CH4 permeability: 1.61 Barrer
- CO2 permeability: 72 Barrer
- H2 permeability: 70.7 Barrer
- N2 permeability: 4 Barrer
- O2 permeability: 18 Barrer

Structure (SMILES): *Oc1ccc(S(=O)(=O)c2ccc(Oc3c(C)cc(Cc4cc(C)c(*)c(C)c4)cc3C)cc2)cc1 (repeat unit)
- CH4 permeability: 0.577 Barrer
- CO2 permeability: 15 Barrer
- H2 permeability: 34.5 Barrer
- N2 permeability: 0.611 Barrer
- O2 permeability: 3.3 Barrer

Structure (SMILES): *Oc1ccc(S(=O)(=O)c2ccc(Oc3ccc(C(C)(C)c4ccc(*)cc4)cc3)cc2)cc1 (repeat unit)
- CH4 permeability: 0.258 Barrer
- CO2 permeability: 5.6 Barrer
- H2 permeability: 14 Barrer
- N2 permeability: 0.249 Barrer
- O2 permeability: 1.4 Barrer
